The record followed here is US20250281393A1, “BODY CAVITY GEL” (CS MEDICA A/S, priority 2021, published 2025).

For the test, the system named is pathogens, such as virus, e.g. cold and/or flu. The following applies: in vivo.

Where two headings read alike, the source gives them in different places.

As to `C=C(C)[C@@H]1CCC(C)=C[C@H]1c1c(O)cc(CCCCC)cc1O` [type A CBD, Cannabidiol], the “Activity (potency) in protection against pathogens, compared with type B CBD” value is given as “significantly more active”. For the setting “listed as crystal structure A”, the “Activity (potency) in protection against pathogens, compared with type B CBD” value was “significantly more potent”.
